Earlier results in PubChem BioAssay AID1259409 (Chemical Carcinogenesis Research Information System (CCRIS), 2018).

Tested on: rodent chemically induced tumor inhibition, incidence and multiplicity
Assay: CCRIS tumor inhibitor studies
Details: Promoter: NONE USED

## CCO
Carcinogen: AZOXYMETHANE, 25843-45-2, Dose [Inhibitor]: 33% OF TOTAL CALORIES OF DIET GIVEN CONTINUOUSLY FOR 3 WK PRIOR TO CARCINOGEN DOSE AND 10 WK DURING INDUCTION (STUDY DUR, Route [Inhibitor]: ORAL, Species: RAT, Strain/Sex: F344/MALE, Target Tissue: Type of Lesion: COLON: TUMOR, Dose [Carcinogen]: 14 MG/KG 1/WK FOR 10 WK
  tumour outcome (control, treated, inhibition, significance): 91%, 5%, 94%, not calculated
Carcinogen: AZOXYMETHANE, 25843-45-2, Dose [Inhibitor]: 33% OF TOTAL CALORIES OF DIET GIVEN CONTINUOUSLY FOR 3 WK PRIOR TO CARCINOGEN DOSE AND 10 WK DURING INDUCTION (STUDY DUR, Route [Inhibitor]: ORAL, Species: RAT, Strain/Sex: F344/MALE, Target Tissue: Type of Lesion: EAR CANAL: TUMOR, Dose [Carcinogen]: 14 MG/KG 1/WK FOR 10 WK
  tumour outcome (control, treated, inhibition, significance): 9%, 0%, 100%, not calculated
Carcinogen: AZOXYMETHANE, 25843-45-2, Dose [Inhibitor]: 33% OF TOTAL CALORIES OF DIET GIVEN CONTINUOUSLY FOR 3 WK PRIOR TO CARCINOGEN DOSE AND 10 WK DURING INDUCTION (STUDY DUR, Route [Inhibitor]: ORAL, Species: RAT, Strain/Sex: F344/MALE, Target Tissue: Type of Lesion: SMALL INTESTINE: TUMOR, Dose [Carcinogen]: 14 MG/KG 1/WK FOR 10 WK
  tumour outcome (control, treated, inhibition, significance): 74%, 0%, 100%, p<0.0001
Carcinogen: ETHYL CARBAMATE, 51-79-6, Dose [Inhibitor]: 0, 12% ADMINISTERED WITH CARCINOGEN IN DRINKING WATER FOR 41 WK (STUDY DURATION: 41 WK), Route [Inhibitor]: ORAL, Species: MOUSE, Strain/Sex: C3H/MALE, Target Tissue: Type of Lesion: LIVER: HEMANGIOENDOTHELIOMA, Dose [Carcinogen]: 20 MG/KG IN DRINKING WATER FOR 41 WK
  tumour outcome (control, treated, inhibition, significance): 14%, 14%, 0%, not calculated
Carcinogen: ETHYL CARBAMATE, 51-79-6, Dose [Inhibitor]: 0, 12% ADMINISTERED WITH CARCINOGEN IN DRINKING WATER FOR 41 WK (STUDY DURATION: 41 WK), Route [Inhibitor]: ORAL, Species: MOUSE, Strain/Sex: C3H/MALE, Target Tissue: Type of Lesion: LIVER: HEMANGIOSARCOMA, Dose [Carcinogen]: 10 MG/KG IN DRINKING WATER FOR 41 WK
  tumour outcome (control, treated, inhibition, significance): 5%, 0%, 100%, not significant
Carcinogen: ETHYL CARBAMATE, 51-79-6, Dose [Inhibitor]: 0, 12% ADMINISTERED WITH CARCINOGEN IN DRINKING WATER FOR 41 WK (STUDY DURATION: 41 WK), Route [Inhibitor]: ORAL, Species: MOUSE, Strain/Sex: C3H/MALE, Target Tissue: Type of Lesion: LIVER: HEMANGIOSARCOMA, Dose [Carcinogen]: 20 MG/KG IN DRINKING WATER FOR 41 WK
  tumour outcome (control, treated, inhibition, significance): 24%, 0%, 100%, not significant
Carcinogen: ETHYL CARBAMATE, 51-79-6, Dose [Inhibitor]: 0, 12% ADMINISTERED WITH CARCINOGEN IN DRINKING WATER FOR 41 WK (STUDY DURATION: 41 WK), Route [Inhibitor]: ORAL, Species: MOUSE, Strain/Sex: C3H/MALE, Target Tissue: Type of Lesion: LIVER: HEPATOCELLULAR ADENOMA, Dose [Carcinogen]: 10 MG/KG IN DRINKING WATER FOR 41 WK
  tumour outcome (control, treated, inhibition, significance): 57%, 24%, 58%, not significant
Carcinogen: ETHYL CARBAMATE, 51-79-6, Dose [Inhibitor]: 0, 12% ADMINISTERED WITH CARCINOGEN IN DRINKING WATER FOR 41 WK (STUDY DURATION: 41 WK), Route [Inhibitor]: ORAL, Species: MOUSE, Strain/Sex: C3H/MALE, Target Tissue: Type of Lesion: LIVER: HEPATOCELLULAR ADENOMA, Dose [Carcinogen]: 20 MG/KG IN DRINKING WATER FOR 41 WK
  tumour outcome (control, treated, inhibition, significance): 48%, 57%, -19%, not significant
Carcinogen: ETHYL CARBAMATE, 51-79-6, Dose [Inhibitor]: 0, 12% ADMINISTERED WITH CARCINOGEN IN DRINKING WATER FOR 41 WK (STUDY DURATION: 41 WK), Route [Inhibitor]: ORAL, Species: MOUSE, Strain/Sex: C3H/MALE, Target Tissue: Type of Lesion: LIVER: HEPATOCELLULAR CARCINOMA, Dose [Carcinogen]: 10 MG/KG IN DRINKING WATER FOR 41 WK
  tumour outcome (control, treated, inhibition, significance): 5%, 0%, 100%, not significant
Carcinogen: ETHYL CARBAMATE, 51-79-6, Dose [Inhibitor]: 0, 12% ADMINISTERED WITH CARCINOGEN IN DRINKING WATER FOR 41 WK (STUDY DURATION: 41 WK), Route [Inhibitor]: ORAL, Species: MOUSE, Strain/Sex: C3H/MALE, Target Tissue: Type of Lesion: LIVER: HEPATOCELLULAR CARCINOMA, Dose [Carcinogen]: 20 MG/KG IN DRINKING WATER FOR 41 WK
  tumour outcome (control, treated, inhibition, significance): 14%, 5%, 64%, not significant
Carcinogen: ETHYL CARBAMATE, 51-79-6, Dose [Inhibitor]: 0, 12% ADMINISTERED WITH CARCINOGEN IN DRINKING WATER FOR 41 WK (STUDY DURATION: 41 WK), Route [Inhibitor]: ORAL, Species: MOUSE, Strain/Sex: C3H/MALE, Target Tissue: Type of Lesion: LUNG: ALVEOLAR ADENOMA, Dose [Carcinogen]: 10 MG/KG IN DRINKING WATER FOR 41 WK
  tumour outcome (control, treated, inhibition, significance): 19%, 0%, 100%, not significant
Carcinogen: ETHYL CARBAMATE, 51-79-6, Dose [Inhibitor]: 0, 12% ADMINISTERED WITH CARCINOGEN IN DRINKING WATER FOR 41 WK (STUDY DURATION: 41 WK), Route [Inhibitor]: ORAL, Species: MOUSE, Strain/Sex: C3H/MALE, Target Tissue: Type of Lesion: LUNG: ALVEOLAR ADENOMA, Dose [Carcinogen]: 20 MG/KG IN DRINKING WATER FOR 41 WK
  tumour outcome (control, treated, inhibition, significance): 48%, 38%, 21%, not significant
Carcinogen: ETHYL CARBAMATE, 51-79-6, Dose [Inhibitor]: 0, 12% ADMINISTERED WITH CARCINOGEN IN DRINKING WATER FOR 41 WK (STUDY DURATION: 41 WK), Route [Inhibitor]: ORAL, Species: MOUSE, Strain/Sex: C3H/MALE, Target Tissue: Type of Lesion: LUNG: CLARA-CELL ADENOMA, Dose [Carcinogen]: 10 MG/KG IN DRINKING WATER FOR 41 WK
  tumour outcome (control, treated, inhibition, significance): 52%, 24%, 54%, not significant
Carcinogen: ETHYL CARBAMATE, 51-79-6, Dose [Inhibitor]: 0, 12% ADMINISTERED WITH CARCINOGEN IN DRINKING WATER FOR 41 WK (STUDY DURATION: 41 WK), Route [Inhibitor]: ORAL, Species: MOUSE, Strain/Sex: C3H/MALE, Target Tissue: Type of Lesion: LUNG: CLARA-CELL ADENOMA, Dose [Carcinogen]: 20 MG/KG IN DRINKING WATER FOR 41 WK
  tumour outcome (control, treated, inhibition, significance): 57%, 38%, 33%, not significant
Carcinogen: ETHYL CARBAMATE, 51-79-6, Dose [Inhibitor]: 0, 20% SIMULTANEOUSLY WITH CARCINOGEN 1/D FOR 8 WK (STUDY DURATION: 16 WK), Route [Inhibitor]: GAVAGE, Species: MOUSE, Strain/Sex: NMRI/FEMALE, Target Tissue: Type of Lesion: LUNG: ADENOMA, Dose [Carcinogen]: 18 MG/KG IN 20% ETHANOL 1/D FOR 8 WK (CONTROL GROUP ADMINISTERED CARCINOGEN IN WATER)
  tumour outcome (control, treated, inhibition, significance): 65%, 76%, -17%, not significant
Carcinogen: ETHYL CARBAMATE, 51-79-6, Dose [Inhibitor]: 0, 20% SIMULTANEOUSLY WITH CARCINOGEN 1/D FOR 8 WK (STUDY DURATION: 16 WK), Route [Inhibitor]: GAVAGE, Species: MOUSE, Strain/Sex: NMRI/FEMALE, Target Tissue: Type of Lesion: LUNG: ADENOMA, Dose [Carcinogen]: 36 MG/KG IN 20% ETHANOL 1/D FOR 8 WK (CONTROL GROUP ADMINISTERED CARCINOGEN IN WATER)
  tumour outcome (control, treated, inhibition, significance): 96%, 83%, 14%, not significant
Carcinogen: ETHYL CARBAMATE, 51-79-6, Dose [Inhibitor]: 0, 20% SIMULTANEOUSLY WITH CARCINOGEN 1/D FOR 8 WK (STUDY DURATION: 16 WK), Route [Inhibitor]: GAVAGE, Species: MOUSE, Strain/Sex: NMRI/FEMALE, Target Tissue: Type of Lesion: LUNG: ADENOMA, Dose [Carcinogen]: 90 MG/KG IN 20% ETHANOL 1/D FOR 8 WK (CONTROL GROUP ADMINISTERED CARCINOGEN IN WATER)
  tumour outcome (control, treated, inhibition, significance): 100%, 100%, 0%, not significant
